The test system of assay [1] is GST27. Put plainly: GST27 induction, metcamifen post-treatment during germination. Format: cell-based, maize. The note with it: for GST27 Mean: post-treatment in germination media (2.5 g/L Gelzan). On the procedure: (§1) For the examples below, GST27 was used as a quick indicator for treatment effectiveness.
Doubled haploid embryos were treated with metcamifen during germination. Metcamifen was tested in the germination media at 0, 5, and 10 mg/L after colchicine treatment completion for 24 or 48 hours. The germination media comprised Gelzan at a concentration of 3.5 g/L. Four genotypes were tested representing two heterotic groups. […] The percent potting rate was not increased as result of these post-treatments. […] This led to a looping of the roots. A reduction in Gelzan concentration from 3.5 g/L to 2.5 g/L was tested (comparison data not presented here). The experiments were then carried out with 2.5 g/L Gelzan for metcamifen post-treatments while the control (0 metcamifen) contained 3.5 g/L Gelzan. Metcamifen was tested as 0, 5, 10 and 20 mg/L after colchicine treatment completion for 24 and 48 hours. The reduction in Gelzan of the metcamifen post-treatments led to a higher percent potting rate (see Table 5).

Assay [2] concerns GST27. Nature of the assay: GST27 induction, metcamifen pre-treatment of maize ears. The assay is classed as cell-based. How it is done: as §1
The effect of temperature was tested independently by comparing 6° C. and 28° C. for both 3 and 5 days with 150 PAR light.
Maize ears were pre-treated with metcamifen prior to embryo isolation and before moving the embryos to colchicine-containing doubling media. In all experiments, doubling media is semi-solid, thickened with Gelzan, unless liquid media is specified. Two methods of delivering the safener at concentrations of 100 and 1000 mg/L were tested. The first method wrapped the ear in a paper towel that was wet with formulated metcamifen. The second method used a sprayer to deliver the formulated metcamifen onto the ear surface at 6° C. with 150 PAR light. GST27 was measured after metcamifen pre-treatment and again at the end of colchicine treatment. A low level of GST27 was induced (<10 ng/mg Total Soluble Protein (TSP)) at the end of the ear pre-treatment. Following ear pre-treatment, embryos were isolated and treated with colchicine for 48 hours.
The addition of 0.5% Tween20 in the formulation with metcamifen at both 100 and 1000 mg/L was tested in combination with spraying corn ears as a pre-treatment prior to embryo isolation.

Assay [3] relates to isolated embryos. Nature of the assay: Potted rate after metcamifen co-treatment during colchicine doubling. The assay is classed as in vivo, maize. The note with it: for Potted Rate Mean: co-treatment with colchicine. On the procedure:
(§2) As used herein, the term “potted rate” or “potting rate” refers to the percent of germinated embryos successfully transferred to soil from total treated haploid embryos. The “potted rate” is used as an indication of plant health in monitoring the success of recovery and growth after treatment of haploids. As used herein, the term “transplant rate” refers to the survival of healthy plants after embryos were germinated and transferred to soil.
Isolated embryos were treated with metcamifen during colchicine doubling (also referred to as co-treatment). Metcamifen was added in the colchicine co-treatment media (a.k.a. doubling media) as a formulation at concentrations of 0, 200, 400, 800, 1200 mg/L. Metcamifen concentrations tested for a 24-hour duration ranged from 0-1000 mg/L. Metcamifen concentrations tested for a 48-hour condition ranged from 0-1200 mg/L. Three to four genotypes representing two heterotic groups were tested.
Initial testing on three genotypes included co-treatment of metcamifen and colchicine in Gelzan media at 28° C. with 150 PAR light at concentrations of 0, 200, and 1000 mg/L to identify a range of working concentrations. The 200 and 1000 mg/L concentrations induced similar GST27 expression levels for both the 24- and 48-hour durations. The resulting induction was higher (400 ng/mg TSP GST27) than recorded with pre-treatments of ears or isolated embryos. […] Metcamifen co-treatment of isolated embryos optimization continued by testing levels of 0, 400, 600, and 800 mg/L for 24 and 48 hours with 4 genotypes across 2 heterotic groups. GST induction (ng/mg TSP) was measured after metcamifen co-treatment. […] The percent potted rate after metcamifen co-treatment was similar for both time durations when sorted by genotype or heterotic group.

The test system of assay [4] is isolated embryos. Put plainly: Potting and transplant rate, thiamethoxam liquid media pre-treatment prior to colchicine doubling. The assay is classed as in vivo, maize.
From the text: as §2
TMX pre-treatment application to isolated embryos prior to colchicine doubling was done in 2 genotypes with replication. Isolated embryos were plated on filter paper and pre-treated with a formulation of TMX at concentrations ranging from 10-1000 mg/L in liquid media. The pre-treatments incubated for 0.5 to 24 hours. Following the pre-treatment, embryos were treated with colchicine for chromosome doubling and plant regeneration. The effect on potting rate and transplant rate were evaluated (see Table 10).
In a follow-up experiment, the liquid pre-treatment was tested at 30 minute and 1-hour durations to determine if a shorter duration would result in better potting and transplant rates than observed in the 1 hour treatments shown in Table 10. These were performed in the same manner as described above, in triplicate.

Setting [5] is: initial testing, 200 and 1000 mg/L, 24-hour co-treatment.
Setting [6] is: Table 10: liquid media pre-treatment, TMX 10 mg/L, 1 hr.
The mark [7] stands for this setting: Table 10: liquid media pre-treatment, TMX 10 mg/L, 24 hr.
Setting [8] is: Table 10: liquid media pre-treatment, TMX 100 mg/L, 1 hr.
The mark [9] stands for this setting: Table 10: liquid media pre-treatment, TMX 100 mg/L, 24 hr.
[10] abbreviates: Table 10: liquid media pre-treatment, TMX 1000 mg/L, 1 hr.
The mark [11] stands for this setting: Table 10: liquid media pre-treatment, TMX 1000 mg/L, 24 hr.
[12] abbreviates: Table 11: liquid pre-treatment, TMX 100 mg/L, 30 min.
Setting [13] is: Table 11: liquid pre-treatment, TMX 100 mg/L, 1 hr.
Where [14] appears, read: Table 11: liquid pre-treatment, TMX 1000 mg/L, 30 min.
Setting [15] is: Table 11: liquid pre-treatment, TMX 1000 mg/L, 1 hr.

SMILES strings stand for the structures.

The results in this text go back to patent publication US20260248087A1, “GENERATING DOUBLED HAPLOID PLANTS” (Syngenta Crop Protection AG, priority 2023, published 2026).

Take `CNC(=O)Nc1ccc(S(=O)(=O)NC(=O)c2ccccc2OC)cc1` [Metcamifen, metcamifen]: the “GST27 expression versus control” value in assay [1] (post-treatment 5 and 10 mg/L, 3.5 g/L Gelzan, 24 and 48 hours) was “higher than the control group”. The “GST27 Mean” value in assay [1] (5 mg/L, Duration 24 hours) stood at 327 ng/mg TSP; in assay [1] (5 mg/L, Duration 48 hours), 317 ng/mg TSP; in assay [1] (10 mg/L, Duration 24 hours) it was 345 ng/mg TSP; in assay [1] (10 mg/L, Duration 48 hours), 290 ng/mg TSP; in assay [1] (20 mg/L, Duration 24 hours) it was 404 ng/mg TSP; in assay [1] (20 mg/L, Duration 48 hours), 400 ng/mg TSP. Further, the “GST27 induced at the end of the ear pre-treatment” value in assay [2] (ear pre-treatment, 100 and 1000 mg/L, 6° C.) is given as < 10 ng/mg Total Soluble Protein (TSP). Moreover, the “GST27 induced by ear pre-treatment” value in assay [2] (ear pre-treatment, as restated in Example 3) is reported as “less than 10 ng/ml of TSP”. Further, the “GST27 before doubling, Mean” value is 4 ng/mg of TSP in assay [2] (ear pre-treatment, metcamifen 100 mg/L, 3 days, 6° C.); 2 ng/mg of TSP in assay [2] (ear pre-treatment, metcamifen 100 mg/L, 5 days, 6° C.); 3 ng/mg of TSP in assay [2] (ear pre-treatment, metcamifen 1000 mg/L, 3 days, 6° C.); 4 ng/mg of TSP in assay [2] (ear pre-treatment, metcamifen 1000 mg/L, 5 days, 6° C.). Further, the “GST27 after doubling, Mean” value in assay [2] (ear pre-treatment, metcamifen 100 mg/L, 3 days, 6° C., then colchicine 48 hours) is on record as 156 ng/mg of TSP; in assay [2] (ear pre-treatment, metcamifen 100 mg/L, 5 days, 6° C., then colchicine 48 hours), 245 ng/mg of TSP; in assay [2] (ear pre-treatment, metcamifen 1000 mg/L, 3 days, 6° C., then colchicine 48 hours), 178 ng/mg of TSP; in assay [2] (ear pre-treatment, metcamifen 1000 mg/L, 5 days, 6° C., then colchicine 48 hours), 303 ng/mg of TSP. Moreover, the “GST27 induction at the end of the colchicine treatment” value in assay [2] (ear pre-treatment, then colchicine 48 hours) was “increased but insignificant”. In addition, the “GST27 expression level with addition of 0.5% Tween20” value in assay [2] (spraying corn ears, 100 and 1000 mg/L, over 4 days) is “did not improve”. The “Potted Rate Mean” value in assay [3] (200 mg/L, 24 hours) is listed as 84%; in assay [3] (400 mg/L, 24 hours), 84%; in assay [3] (400 mg/L, 48 hours), 14%; in assay [3] (800 mg/L, 24 hours) it was 92%; in assay [3] (800 mg/L, 48 hours), 73%; in assay [3] (1200 mg/L, 48 hours), 71%. Also, the “percent potted rate versus 1000 mg/L and control” value in assay [3] (initial testing, 200 mg/L, 48-hour co-treatment) was “increased the percent potted rate”. The “doubled haploid ears produced versus the control” value in assay [3] (setting [5]) is “increase in the doubled haploid ears produced”. Besides, the “percent potted rate versus the control” value in assay [3] (setting [5]) is given as “increased the percent potted rate”.
Turning to `CN1COCN(Cc2cnc(Cl)s2)/C1=N\[N+](=O)[O-]` [TMX, thiamethoxam], the “Potting Rate Mean” value in assay [4] (setting [6]) is 55%; in assay [4] (setting [7]), 7%; in assay [4] (setting [8]), 38%; in assay [4] (setting [9]) it was 15%; in assay [4] (setting [10]), 58%; in assay [4] (setting [11]), 11%. Besides, the “Potting Rate Mean” value in assay [4] (setting [12]) came out at 68%; in assay [4] (setting [13]) it was 77%; in assay [4] (setting [14]), 51%; in assay [4] (setting [15]) it was 74%. Also, the “Transplant Rate Mean” value in assay [4] (setting [6]) was 51%; in assay [4] (setting [7]), 7%; in assay [4] (setting [8]) it was 37%; in assay [4] (setting [9]), 15%; in assay [4] (setting [10]), 55%; in assay [4] (setting [11]) it was 11%. The “Transplant Rate Mean” value turned out to be 54% in assay [4] (setting [12]), 66% in assay [4] (setting [13]), 42% in assay [4] (setting [14]) and 56% in assay [4] (setting [15]).
